Molecular target: human F508del-CFTR (Homo sapiens, UniProt P13569, DEL508-508)
Experiment: F508del-CFTR cell surface expression (corrector activity), DiscoveRx ß-galactosidase complementation chemiluminescence assay in recombinant U2OS cell line;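 also: U2OS cells co-expressing ProLink-tagged F508del-CFTR and a membrane-anchored enzyme acceptor, where more surface CFTR restores β-galactosidase activity measured by chemiluminescence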
Conditions: for EC50: EC50, F508del-CFTR cell surface expression; for Emax: U2OS
[1] = U2OS cell line, 16h compound incubation, geomean values
[2] = U2OS cells, 16h compound incubation, geomean values
[3] = in relation to Emax of corrector lumacaftor (=100%), arithmetic mean values
[4] = U2OS cells, 16h compound incubation, geomean of several measurements
[5] = in relation to the Emax of the corrector lumacaftor (=100%), U2OS cells, 16h compound incubation, arithmetic mean
[6] = in relation to the Emax of the corrector lumacaftor (=100%), U2OS cell line, 16h compound incubation, arithmetic mean values

Sequence of human F508del-CFTR (P13569 with tags, fused parts or gaps DEL508-508): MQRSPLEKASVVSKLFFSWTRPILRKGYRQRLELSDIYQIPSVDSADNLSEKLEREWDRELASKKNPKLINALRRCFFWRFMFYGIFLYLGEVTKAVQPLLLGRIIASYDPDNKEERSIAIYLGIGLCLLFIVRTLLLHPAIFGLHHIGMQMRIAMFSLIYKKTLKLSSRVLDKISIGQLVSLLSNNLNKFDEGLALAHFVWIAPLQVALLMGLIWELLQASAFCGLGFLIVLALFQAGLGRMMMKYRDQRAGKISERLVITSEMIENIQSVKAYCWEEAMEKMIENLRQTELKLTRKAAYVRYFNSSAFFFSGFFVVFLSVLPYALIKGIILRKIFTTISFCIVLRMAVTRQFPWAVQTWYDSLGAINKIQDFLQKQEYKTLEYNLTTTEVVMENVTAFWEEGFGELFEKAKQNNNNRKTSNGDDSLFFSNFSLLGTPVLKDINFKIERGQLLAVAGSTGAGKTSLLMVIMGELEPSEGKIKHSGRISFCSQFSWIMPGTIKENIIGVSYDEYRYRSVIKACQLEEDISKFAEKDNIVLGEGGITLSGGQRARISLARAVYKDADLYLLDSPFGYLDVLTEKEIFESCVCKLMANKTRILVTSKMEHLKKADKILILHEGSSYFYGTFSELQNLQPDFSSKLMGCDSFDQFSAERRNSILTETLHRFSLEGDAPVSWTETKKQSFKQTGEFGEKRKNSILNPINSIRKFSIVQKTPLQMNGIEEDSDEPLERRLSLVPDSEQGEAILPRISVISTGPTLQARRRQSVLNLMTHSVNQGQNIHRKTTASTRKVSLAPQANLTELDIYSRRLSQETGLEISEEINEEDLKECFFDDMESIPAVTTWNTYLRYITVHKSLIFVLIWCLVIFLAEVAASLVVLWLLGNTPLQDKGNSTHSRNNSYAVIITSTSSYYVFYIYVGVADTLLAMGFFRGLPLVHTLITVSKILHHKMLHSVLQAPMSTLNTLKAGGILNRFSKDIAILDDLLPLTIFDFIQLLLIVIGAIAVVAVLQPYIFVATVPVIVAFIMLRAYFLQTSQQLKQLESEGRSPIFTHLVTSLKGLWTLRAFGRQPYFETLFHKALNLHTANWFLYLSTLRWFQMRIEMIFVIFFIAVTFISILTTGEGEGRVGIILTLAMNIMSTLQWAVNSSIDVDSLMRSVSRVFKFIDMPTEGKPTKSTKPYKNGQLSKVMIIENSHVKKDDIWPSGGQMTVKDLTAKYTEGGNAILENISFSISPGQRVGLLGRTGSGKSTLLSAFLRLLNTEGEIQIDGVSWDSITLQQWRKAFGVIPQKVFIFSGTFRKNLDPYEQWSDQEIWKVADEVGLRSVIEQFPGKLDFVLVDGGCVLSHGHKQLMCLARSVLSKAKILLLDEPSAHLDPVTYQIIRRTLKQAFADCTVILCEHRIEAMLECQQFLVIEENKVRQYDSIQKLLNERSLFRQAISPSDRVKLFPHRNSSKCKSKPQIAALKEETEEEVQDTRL
Description: The method measures the effect of over-night compound incubation on F508del-CFTR cell surface expression in a recombinant U2OS cell line (DiscoveRx, #93-0987C3). This cell line is engineered to co-express (i) human F508del-CFTR tagged with a Prolink (PK=short ß-galactosidase fragment) and (ii) the remainder of the ß-galactosidase enzyme (Enzyme Acceptor; EA) localized to the plasma membrane. Incubation with compounds that increase PK-tagged F508del-CFTR at the plasma membrane will lead to complementation of the EA fragment to form a functional ß-galactosidase enzyme which is quantified by a chemiluminescence reaction.
The cells are incubated for 5h in the incubator before the addition of 5 μl/well of compound dilution series (5× working stocks in full medium). […] The cells are co-incubated with the compounds for 16h in the incubator at 37° C., 5% CO2. The next day, the cell plates are incubated for 2h at RT in the dark. […] Concentration-response curves are generated using compound-intrinsic maximal efficacy as upper plateau, and from these CRCs compound-intrinsic EC50 values are determined.
The calculated EC50 values may fluctuate depending on the daily assay performance. […] EC50 values from several measurements are given as geomean values. The calculated Emax values may fluctuate depending on the daily assay performance. […] Emax values from several measurements are given as arithmetic mean values.

With `CC(C)C[C@H]1C(=O)N2CCCC[C@@H]2C(=O)N[C@H](Cc2ccccc2)COc2ccc3ncn(C)c3c2C(=O)N[C@H](C(=O)NCCc2cccc(-n3nccn3)c2)CC(=O)N1C` (mixture of isomers) [Example 28, (8RS,12S,18aR,21R)-N-(3-(2H-1,2,3-triazol-2-yl)phenethyl)-21-benzyl-12-isobutyl-5,11-dimethyl-6,10,13,19-tetraoxo-6,7,8,9,10,11,12,13,16,17,18,18a,19,20,21,22-hexadecahydro-5H,15H-imidazo[4′,5′:5,6]benzo[1,2-p]pyrido[2,1-f][1]oxa[4,7,10,14]tetraazacycloheptadecine-8-carboxamide] the EC50 [1] was 603 nM.
`COc1cccc(CCNC(=O)[C@@H]2CC(=O)N(C)[C@@H](CC(C)C)C(=O)N3CCN(CC4CC4)C[C@@H]3C(=O)N[C@H](Cc3ccccc3)COc3ccc4nc(C)oc4c3C(=O)N2)c1` [Example 425, (8S,12S,18aR,21R)-21-benzyl-17-(cyclopropylmethyl)-12-isobutyl-N-(3-methoxyphenethyl)-4,11-dimethyl-6,10,13,19-tetraoxo-6,7,8,9,10,11,12,13,16,17,18,18a,19,20,21,22-hexadecahydro-15H-oxazolo[4′,5′:5,6]benzo[1,2-p]pyrazino[2,1-f][1]oxa[4,7,10,14]tetraazacycloheptadecine-8-carboxamide] gave an EC50 [2] of 348 nM and an Emax [3] of 364%.
`CC(C)C[C@H]1C(=O)N(C)[C@H](Cc2nc(C(F)(F)F)no2)C(=O)N[C@H](Cc2ccccc2)COc2ccc3ncc(F)cc3c2C(=O)N[C@H](C(=O)NCCc2nc3ncccn3n2)CC(=O)N1C` [Example 908, (3S,7S,10R,13R)-N-(2-([1,2,4]triazolo[1,5-a]pyrimidin-2-yl)ethyl)-13-benzyl-20-fluoro-7-isobutyl-6,9-dimethyl-1,5,8,11-tetraoxo-10-((3-(trifluoromethyl)-1,2,4-oxadiazol-5-yl)methyl)-1,2,3,4,5,6,7,8,9,10,11,12,13,14-tetradecahydro-[1]oxa[4,7,10,14]tetraazacycloheptadecino[16,17-f]quinoline-3-carboxamide] showed an EC50 [4] of 94 nM and an Emax [5] of 401%.
Compound `CC(C)C[C@H]1C(=O)N(C)[C@H](CC2CCCCC2)C(=O)N[C@H](Cc2ccccc2)COc2cnc3ccc(F)cc3c2C(=O)N[C@H](C(=O)NCCc2cc(C3CC3)no2)CC(=O)N1C` [Example 697, (3S,7S,10R,13R)-13-benzyl-10-(cyclohexylmethyl)-N-(2-(3-cyclopropylisoxazol-5-yl)ethyl)-20-fluoro-7-isobutyl-6,9-dimethyl-1,5,8,11-tetraoxo-1,2,3,4,5,6,7,8,9,10,11,12,13,14-tetradecahydro-[1]oxa[4,7,10,14]tetraazacycloheptadecino[17,16-c]quinoline-3-carboxamide] has an EC50 [2] of 27 nM and an Emax [3] of 306%.
With `COc1nccc2c1C(=O)N[C@H](C(=O)NCC(F)(F)c1nc(C3CC3)no1)CC(=O)N(C)[C@@H](CC(C)C)C(=O)N1CCCC[C@@H]1C(=O)N[C@H](Cc1ccccc1)CO2` [Example 831, (7S,11S,17aR,20R)-20-benzyl-N-(2-(3-cyclopropyl-1,2,4-oxadiazol-5-yl)-2,2-difluoroethyl)-11-isobutyl-4-methoxy-10-methyl-5,9,12,18-tetraoxo-5,6,7,8,9,10,11,12,15,16,17,17a,18,19,20,21-hexadecahydro-14H-dipyrido[2,1-f:3′,4′-p][1]oxa[4,7,10,14]tetraazacycloheptadecine-7-carboxamide] the EC50 [4] was 491 nM and the Emax [5] was 231%.
`COc1cccc(CCNC(=O)[C@@H]2CC(=O)N(C)[C@@H](CC(C)C)C(=O)N(C)CC(=O)N[C@H](Cc3ccccc3)COc3cccc(F)c3C(=O)N2)c1` [Example 277, (3R,9S,13S)-3-benzyl-16-fluoro-9-isobutyl-N-(3-methoxyphenethyl)-7,10-dimethyl-5,8,11,15-tetraoxo-2,3,4,5,6,7,8,9,10,11,12,13,14,15-tetradecahydrobenzo[p][1]oxa[4,7,10,14]tetraazacycloheptadecine-13-carboxamide] was tested, and the EC50 [1] was 830 nM and the Emax [6] was 134%.
With `COc1cc(CCNC(=O)[C@@H]2CC(=O)N(C)[C@@H](CC(C)C)C(=O)N(C)[C@]3(C[C@H](OC)C3)C(=O)N[C@H](Cc3ccccc3)COc3ccc4ncc(F)cc4c3C(=O)N2)on1` [Example 926, (1r,3S,3′S,7′S,13′R)-13′-benzyl-20′-fluoro-7′-isobutyl-3-methoxy-N-(2-(3-methoxyisoxazol-5-yl)ethyl)-6′,9′-dimethyl-1′,5′,8′,11′-tetraoxo-2′,3′,4′,5′,6′,7′,8′,9′,11′,12′,13′,14′-dodecahydro-1′H-spiro[cyclobutane-1,10′-[1]oxa[4,7,10,14]tetraazacycloheptadecino[16,17-f]quinoline]-3′-carboxamide] the EC50 [4] was 759 nM and the Emax [5] was 416%.
`CC(C)C[C@H]1C(=O)N2CCCC[C@@H]2C(=O)N[C@H](Cc2ccccc2)COc2cnc3cccc(F)c3c2C(=O)N[C@H](C(=O)NCCc2noc(C3CC3)n2)CC(=O)N1C` [Example 563, (9S,13S,19aR,22R)-22-benzyl-N-(2-(5-cyclopropyl-1,2,4-oxadiazol-3-yl)ethyl)-6-fluoro-13-isobutyl-12-methyl-7,11,14,20-tetraoxo-7,8,9,10,11,12,13,14,17,18,19,19a,20,21,22,23-hexadecahydro-16H-pyrido[2′,11:6,7][1]oxa[4,7,10,14]tetraazacycloheptadecino[17,16-c]quinoline-9-carboxamide] gave an EC50 [2] of 125 nM and an Emax [3] of 330%.
For `COc1nccc2c1C(=O)N[C@H](C(=O)NCCc1cccc(-n3nccn3)c1)CC(=O)N(C)[C@@H](CC(C)C)C(=O)N1CCCC[C@H]1C(=O)N[C@H](Cc1ccccc1)CO2` [Example 467, (7S,11S,17aS,20R)-N-(3-(2H-1,2,3-triazol-2-yl)phenethyl)-20-benzyl-11-isobutyl-4-methoxy-10-methyl-5,9,12,18-tetraoxo-5,6,7,8,9,10,11,12,15,16,17,17a,18,19,20,21-hexadecahydro-14H-dipyrido[2,1-f:3′,4′-p][1]oxa[4,7,10,14]tetraazacycloheptadecine-7-carboxamide], the EC50 [2] was 936 nM and the Emax [3] was 152%.
In the case of `CC(C)C[C@H]1C(=O)N2CCOC[C@@H]2C(=O)N[C@H](Cc2ccccc2)COc2cnc3ccccc3c2C(=O)N[C@H](C(=O)NCCc2cc(C(C)(C)C)on2)CC(=O)N1C` [Example 107, (9S,13S,19aR,22R)-22-benzyl-N-(2-(5-(tert-butyl)isoxazol-3-yl)ethyl)-13-isobutyl-12-methyl-7,11,14,20-tetraoxo-7,8,9,10,11,12,13,14,16,17,19,19a,20,21,22,23-hexadecahydro-[1,4]oxazino[3′,4′:6,7][1]oxa[4,7,10,14]tetraazacycloheptadecino[17,16-c]quinoline-9-carboxamide], the EC50 [1] is reported as 794 nM and the Emax [6] is reported as 257%.
Work on `Cc1cc(CCNC(=O)[C@@H]2CC(=O)N(C)[C@@H](CC(C)C)C(=O)N(CCC3CCCCC3)CC(=O)N[C@H](Cc3ccccc3)COc3ccc4nc(C)oc4c3C(=O)N2)on1` [Example 410, (8R,14S,18S)-8-benzyl-12-(2-cyclohexylethyl)-14-isobutyl-2,15-dimethyl-N-(2-(3-methylisoxazol-5-yl)ethyl)-10,13,16,20-tetraoxo-7,8,9,10,11,12,13,14,15,16,17,18,19,20-tetradecahydrooxazolo[4′,5′:5,6]benzo[1,2-p][1]oxa[4,7,10,14]tetraazacycloheptadecine-18-carboxamide] yielded an EC50 [2] of 129 nM and an Emax [3] of 269%.
